These results are taken from PubChem BioAssay (NCI).

Molecules are shown by their SMILES.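 The compound was tested at five concentrations on cells cultured in 96-well plates, with a 48-hour exposure period. The concentration for 50% growth inhibition is given as GI50. TGI: concentration producing complete growth inhibition.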 Bounds are passed on as bounds.

Test systems include SNB-19 CNS; SF-295 CNS; ACHN renal; KM12 colon; OVCAR-3 ovarian; T-47D breast; NCI-H226 lung; SNB-75 CNS.
What all share (test): DTP human tumour cell line panel, 48 h

Turning to `O=C(c1ccc2ccccc2c1)C1S(=O)(=O)OCCOS1(=O)=O`, the TGI with SNB-19 CNS, in the experiment with SF-295 CNS, in the experiment on ACHN renal, with KM12 colon and with OVCAR-3 ovarian was over 100 µM throughout.

Turning to `COc1cc2cc(C(=O)N3CC(CCl)c4c3cc(N)c3ccccc43)[nH]c2cc1OCCN(C)C` (stereo not drawn), the TGI – broadly, the concentration at which net growth stops – in the experiment on T-47D breast was 0.0394 µM; with KM12 colon it was 0.0116 µM; in the experiment on NCI-H226 lung, 0.0224 µM; in the experiment on OVCAR-3 ovarian, 0.0209 µM.

As to `CCCCC[C@@H]1OCO[C@@]2(C)/C=C(C)/C=C/C(=O)O[C@H]([C@@H](C)[C@@H](O)[C@H](C)[C@@]3(O)C[C@@H](O[C@H]4C[C@@H](O)[C@H](O)[C@@H](C)O4)[C@H](C)[C@@H](C)O3)[C@@H](OC)/C=C/C=C(\C)C[C@@H]1[C@@H]2O` (stereo in doubt), the TGI with SNB-19 CNS came to 7.78 µM; in the experiment with SF-295 CNS, 0.0563 µM; in the experiment with ACHN renal, 1.33 µM; with T-47D breast, 9.09 µM; with KM12 colon, 5.36 µM; in the experiment with NCI-H226 lung, 0.0468 µM. Also, the TGI in the experiment on OVCAR-3 ovarian was 2.46 µM; with SNB-75 CNS, 2.64 µM.

As for `Cc1cc2ccccc2c[n+]1CC(O)C[n+]1cc2ccccc2cc1C`, the TGI in the experiment on SNB-19 CNS, in the experiment on SF-295 CNS, in the experiment with ACHN renal, in the experiment on T-47D breast, with KM12 colon and in the experiment with NCI-H226 lung was over 100 µM each time. Moreover, the concentration for total growth inhibition (TGI) in the experiment with OVCAR-3 ovarian and in the experiment on SNB-75 CNS was over 100 µM each time.

Take `CN(CCc1ccc(Cl)c(Cl)c1)[C@H]1CCCC[C@H]1N1CCCC1`: the TGI with SNB-19 CNS, with SF-295 CNS, in the experiment with ACHN renal, with T-47D breast, in the experiment on KM12 colon and with NCI-H226 lung was over 100 µM throughout. Moreover, the TGI in the experiment with OVCAR-3 ovarian was over 100 µM.

For `Clc1nc(-[n+]2ccc(-c3ccncc3)cc2)nc(Nc2ccccc2)c1Cl`, the TGI with SNB-19 CNS, with ACHN renal, in the experiment with T-47D breast, in the experiment on KM12 colon, in the experiment with NCI-H226 lung and in the experiment on OVCAR-3 ovarian was over 100 µM each time.

In the case of `CC[C@]12C=CCN3CCC4(c5cc(N=Nc6ccccc6)c(OC)cc5N(C)[C@H]4[C@@](O)(C(=O)OC)[C@@H]1OC(C)=O)[C@@H]32` (stereo partly drawn), the TGI with SNB-19 CNS was 47.2 µM; in the experiment on SF-295 CNS, 34.5 µM; with ACHN renal it was 30.1 µM; in the experiment on KM12 colon it was 37.7 µM; in the experiment on NCI-H226 lung, 51.5 µM; in the experiment on OVCAR-3 ovarian, 28.1 µM.

For the compound `CC(CCC(=O)O)[C@H]1CCC2[C@H]3C(CC[C@@]21C)[C@@]1(C)CCC(O)C[C@H]1C[C@@H]3O` (stereo partly drawn), the TGI in the experiment on SNB-19 CNS, in the experiment on ACHN renal, with T-47D breast, with KM12 colon, with NCI-H226 lung and in the experiment on SNB-75 CNS was over 100 µM each time.

As for `Cc1cc(Cc2c(F)c(F)c(Cc3cc(C)no3)c(F)c2F)on1`, the TGI with SNB-19 CNS, with SF-295 CNS, in the experiment with ACHN renal, in the experiment with T-47D breast, in the experiment with NCI-H226 lung and with OVCAR-3 ovarian was over 100 µM each time. In the experiment on SNB-75 CNS, the TGI was 76.7 µM.

With `CNC(=O)CCC(NC(C)=O)C(=O)NC(Cc1ccc(NC(=O)CCCCC(C)=O)cc1)C(=O)NC(CCC(=O)NC)C(=O)NC` (stereo not drawn), the TGI in the experiment on SNB-19 CNS, in the experiment on SF-295 CNS, in the experiment on ACHN renal, in the experiment with T-47D breast, in the experiment with KM12 colon and in the experiment on NCI-H226 lung was over 100 µM each time. The TGI with OVCAR-3 ovarian is over 100 µM.

Regarding `N#Cc1c(NC(=O)c2ccccc2)sc2c1CCC(=O)C2`, the GI50 – broadly, the concentration that inhibits growth by half – is 3.48 µM in the experiment on SNB-19 CNS; 1.96 µM in the experiment on SF-295 CNS; 0.906 µM in the experiment on ACHN renal; 0.711 µM in the experiment with KM12 colon; 2.75 µM in the experiment with NCI-H226 lung; 1.04 µM in the experiment on OVCAR-3 ovarian. The GI50 in the experiment with SNB-75 CNS was 1.64 µM. Also, the TGI with SNB-19 CNS was over 100 µM; with SF-295 CNS, 6.83 µM; in the experiment with ACHN renal, 2.3 µM; with KM12 colon it was 5.22 µM; with NCI-H226 lung it was 12.1 µM; in the experiment with OVCAR-3 ovarian, 2.43 µM. In addition, in the experiment with SNB-75 CNS, the TGI was 6.2 µM.

Take `CCN(CC)CCO/N=C1\CC[C@H]2[C@@H]3CC=C4C[C@@H](O)CC[C@]4(C)[C@H]3CC[C@]12C`: the TGI in the experiment on SNB-19 CNS is 98.5 µM; in the experiment on SF-295 CNS, 38.6 µM; in the experiment on ACHN renal, over 100 µM; in the experiment on KM12 colon it was 38.5 µM; in the experiment with NCI-H226 lung, 33.1 µM; with OVCAR-3 ovarian it was 43.8 µM. The same compound gave a TGI with SNB-75 CNS of 91.1 µM.

For the compound `O=C1NC(=S)N/C1=C/c1ccccc1O`, the TGI in the experiment with SNB-19 CNS, in the experiment with SF-295 CNS, in the experiment with ACHN renal, with T-47D breast, in the experiment on NCI-H226 lung and in the experiment with OVCAR-3 ovarian was over 100 µM throughout.

With `Cc1nnc2cc(C(=O)O)c3ccccc3n2c1=O`, the TGI in the experiment on SNB-19 CNS, in the experiment on SF-295 CNS, in the experiment with T-47D breast, with NCI-H226 lung, with OVCAR-3 ovarian and in the experiment with SNB-75 CNS was over 10 µM throughout.

Turning to `N#Cc1c(Nc2ccc(F)cc2)[n+]([O-])c2ccc(Cl)cc2[n+]1[O-]`, the TGI in the experiment with SNB-19 CNS is over 100 µM; with SF-295 CNS, 4.95 µM; in the experiment with T-47D breast, 38.9 µM; in the experiment on KM12 colon, over 100 µM; with NCI-H226 lung it was 28.8 µM; with OVCAR-3 ovarian it was 13.3 µM. In addition, the TGI in the experiment on SNB-75 CNS was determined as 74.6 µM.

With `CC1(C)COC(c2cccc(C3=NC(C)(C)CO3)c2Br)=N1`, the TGI in the experiment on SNB-19 CNS, in the experiment on ACHN renal, in the experiment on T-47D breast, with KM12 colon, with NCI-H226 lung and in the experiment with SNB-75 CNS was over 100 µM throughout.

In the case of `CN=C(Nn1cnnc1)OC`, the TGI in the experiment with SNB-19 CNS, in the experiment with SF-295 CNS, with ACHN renal, with T-47D breast, with KM12 colon and in the experiment on OVCAR-3 ovarian was over 100 µM throughout.

As to `COC(=O)c1ccc(-c2nc(C#N)c(N)o2)cc1`, the TGI with SNB-19 CNS, in the experiment on SF-295 CNS, in the experiment on ACHN renal, with T-47D breast, in the experiment with KM12 colon and in the experiment on NCI-H226 lung was over 100 µM in each case. The compound further displayed a TGI in the experiment on OVCAR-3 ovarian of over 100 µM.
